Laboratory results taken from PubChem BioAssay (NCI).
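1) Cells in 96-well plates. 2) Compound, 48 h, 5 concentrations. 3) Linear interpolation between surrounding doses. 4) Unreached endpoint = highest concentration. Abbreviation: GI50, concentration required for 50% inhibition of growth. TGI: concentration producing complete growth inhibition.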

Tests used:
Assay in all cases: NCI tumour cell line growth inhibition, 48 h
[1] = system: 786-0 renal
[2] = system: ACHN renal
[3] = system: BT-549 breast
[4] = system: HCT-15 colon
[5] = system: HOP-62 NSCLC
[6] = system: HOP-92 NSCLC
[7] = system: PC-3 prostate
[8] = system: SK-MEL-2 melanoma
[9] = system: SN12C renal
[10] = system: SNB-75 CNS

Structure (SMILES)	GI50 [1] [nM]	TGI [1] [µM]	GI50 [2] [nM]	TGI [2] [µM]	GI50 [3] [nM]	TGI [3] [µM]	GI50 [4] [nM]	TGI [4] [µM]	GI50 [5] [nM]	TGI [5] [µM]	GI50 [6] [nM]	TGI [6] [µM]	GI50 [7] [nM]	TGI [7] [µM]	GI50 [8] [nM]	TGI [8] [µM]	GI50 [9] [nM]	TGI [9] [µM]	GI50 [10] [nM]	TGI [10] [µM]
CCOC(=O)C(Cc1ccc(OC)cc1)C(=O)OCC	6190	18.7	7330	22.3	3250	13.5	3770	19.4	9510	22.6	6930	30.4	5080	32.4	2640	8.66	5770	21.7	2720	9.35
Cc1cc2nc3c4ccccc4n(CCN(C)C)c3nc2cc1C	1970	12.2	555	11.3	2070	6.25	1770	10.4	1110	7.74	1360	8.85	2010	8.19	1900	4.24	1080	10.5	1280	3.2
C[C@@H](Oc1cc(-c2cnn(C3CC4(CCCNC4)C3)c2)cnc1N)c1c(Cl)ccc(F)c1Cl (stereo not given in full)	1640	3.19	1570	4.49	1950	3.72	1300	3.16	1210	4.92	807	3.42	1250	6.83	1690	3.24	1500	8.97	1640	3.96
CC(=O)OCC(=O)C1(O)C(C)CC2C3C=C(C)C4=Cc5c(cnn5-c5ccccc5)CC4(C)C3C(O)CC21C (stereo not given)	1490	3.22	2160	9.03	1250	3.85	1150	2.54	1350	3.52	26.1	7.39	1690	5.83	1660	3.85	–	9.86	1890	5.92
O=C1c2ccccc2C(=O)c2c(NC(=O)c3ccc4c5c(ncnc35)-c3ccccc3C4=O)cccc21	–	84.7	–	> 100	–	> 100	–	> 100	–	42.7	–	> 100	–	> 100	–	> 100	–	> 100	–	58.5
COC(=O)Nc1nc2ccc(Sc3ccccc3)cc2[nH]1	323	14.6	1190	22.9	1040	18.8	82.5	23	277	4.23	177	7	214	> 37.4	162	2.88	524	25.7	195	2.05
O=C(NO)c1cnc(N2CCN(S(=O)(=O)c3ccc4ccccc4c3)CC2)nc1	193	2.83	72.3	0.595	803	53.4	69	15.6	104	5.49	20.2	0.0857	78	> 36	34.5	0.214	198	13.2	26.5	10.8
C=C(C)[C@@H]1CC[C@]2(C)[C@H](C=CC3=C4C[C@@](C)(CO)CC[C@]4(C)CC[C@]32C)[C@@]1(C)CCCN	1680	3.44	1760	3.14	1630	3.07	1530	2.92	–	–	1480	3.21	1700	3.28	1920	3.58	1640	3.15	1530	2.97
NC(=O)NC(=O)C1CCCCC1C(=O)O (stereo not given)	–	> 100	–	> 100	–	> 100	–	> 100	–	> 100	–	> 100	–	> 100	–	> 100	–	> 100	–	> 100
C=C1C(=O)OC2CC3(C)OC3C3OC3C3=CC(OC3=O)C12 (stereo not given)	17200	33.8	1810	3.35	8330	21.5	2400	6.45	15200	41.5	2010	4.77	15900	32.9	15400	36.4	11300	25.2	14500	38.6
CC(=O)/C=C/C1=C(c2ccsc2)c2ccccc2CC1	34100	> 100	25900	61.1	29500	69.3	18600	35.3	26100	66.8	17200	50.6	23900	65.3	21200	38	20900	47.2	> 100000	> 100
ClC1=C(Cl)C(Cl)=C(Cl)C1=Cc1ccc(Cl)cc1	604	1.64	327	1.07	428	1.58	536	2.56	802	2.3	1530	3.84	876	6.5	2130	4.35	375	1.82	1440	3.26
CN1CCN(c2ccc3nc4c(nc3c2C(F)(F)F)C(=O)c2ncccc2C4=O)CC1	2020	4.9	–	–	1580	3.07	1190	3.11	1070	2.92	2490	5.65	1440	11.5	2050	4.34	1440	2.91	1110	2.32
